Assay results published in publication PMC9743426, “Expanding the Chemical Space of Drug-like Passerini Compounds: Can α-Acyloxy Carboxamides Be Considered Hard Drugs?” (ACS Medicinal Chemistry Letters, 2022).

How the values were obtained:
[1] = Hydrolytic (chemical) stability in Tris-HCl buffer pH 7.4; assay type: physicochemical; conditions: 50 mM Tris-HCl buffer pH 7.4, incubation 30 min, without microsomes
Description: (§1) For all 43 compounds, a first evaluation of their chemical and metabolic stabilities toward hydrolysis was performed by incubating them in buffer under physiological conditions (50 mM Tris-HCl, pH 7.4) and in mouse liver microsomes (Table 1). This model was chosen because, similar to the human liver, both of the carboxylesterase isoforms are present. […] A more interesting trend was instead possible to observe with benzoic acids.
(§2) Hydrolytic stability in MLM and HLM
(§3) The standard incubation mixture (200 µL final volume) was carried out in a 50 mM TRIS-HCl buffer (pH 7.4) containing 150 mM KCl, tween 80 as cosolvent (0.8 mg/mg protein), and the substrate (10 μM). After pre-equilibration of the mixture, an appropriate volume of MLM or HLM suspension was added to give a final protein concentration of 1.0 mg/mL. The mixture was shaken for 30 minutes at 37 °C. Control incubations were carried out without the presence or microsomes or in pure acetonitrile. Each incubation was stopped by the addition of 200 µL ice-cold acetonitrile, vortexed and centrifuged at 13000 rpm for 5 min. The supernatants were analyzed by LC-HRMS. […]

[2] = Hydrolytic stability in human liver microsomes (HLM); assay type: in vitro ADME; conditions: for Residual substrate percentage, HLM: human liver microsomes 1.0 mg/mL protein, substrate 10 μM, 37 °C; for Hydrolytic stability toward esterases (in words): liver microsomes, species stated only for the stable ester (human liver)
Description: This was made in light of the fact that the overall metabolizing capability of murine hepatic enzymes, including carboxylesterases, is supposed to be higher compared to the human ones.[17]
as §2, §3

[3] = Hydrolytic stability in mouse liver microsomes (MLM); assay type: in vitro ADME; conditions: 30 min; for Residual substrate percentage, MLM: mouse liver microsomes 1.0 mg/mL protein, substrate 10 μM, 37 °C
Description: as §1, §2, §3

Compound | Residual substrate percentage, buffer [1] | Residual substrate percentage, HLM ([2]; 30 min) | Residual substrate percentage, MLM [3] | Hydrolytic stability toward esterases (in words) [2] | Hydrolytic stability toward esterases (in words) ([2]; listed as methyl 2,6-dimethylbenzoate) | Hydrolytic stability in human liver microsomes (in words) ([2]; human liver microsomes, 30 min) | Hydrolysis of the ester group in mouse liver microsomes (in words) [3]
COC(=O)c1ccccc1 [Compound 11, methyl benzoate, reference compound] | > 99% | < 1% | < 1% | – | – | – | –
COC(=O)c1c(C)cccc1C [Compound 12, methyl 2,6-dimethylbenzoate, reference compound] | > 99% | > 99% | 77% | stable toward esterases | completely resistant to esterases | – | –
Cc1ccccc1C(OC(=O)c1ccccc1)C(=O)NC(C)(C)C (stereo not shown) [Compound 56] | >99% | – | <1% | – | – | – | –
CC(C)C(OC(=O)c1ccccc1)C(=O)NC(C)(C)C (stereo not shown) [Compound 59] | 94% | – | <1% | – | – | – | –
CCCCCCC(OC(=O)c1ccccc1)C(=O)NC(C)(C)C (stereo not shown) [Compound 60] | 93% | – | <1% | – | – | – | –
CC(C)(C)NC(=O)COC(=O)c1ccccc1 [Compound 61] | >99% | – | <1% | – | – | – | –
CC(C)(C)NC(=O)C(OC(=O)c1ccccc1)c1ccccc1 (stereo not shown) [Compound 62] | >99% | – | <1% | – | – | – | –
COc1ccc(C(OC(=O)c2ccccc2)C(=O)NC(C)(C)C)cc1 (stereo not shown) [Compound 63] | 92% | – | <1% | – | – | – | –
CCCCCCC(OC(=O)c1cccs1)C(=O)NC(C)(C)C (stereo not shown) [Compound 64] | >99% | <1% | <1% | – | – | instability | –
COc1ccc(C(=O)OC(C(=O)NC(C)(C)C)C(C)C)cc1 (stereo not shown) [Compound 66] | 92% | – | <1% | – | – | – | –
Cc1ccc(C(=O)OC(C(=O)NC(C)(C)C)C(C)C)cc1 (stereo not shown) [Compound 67] | 94% | – | <1% | – | – | – | –
CC(C)C(OC(=O)c1ccc(Cl)cc1)C(=O)NC(C)(C)C (stereo not shown) [Compound 68] | >99% | – | <1% | – | – | – | –
CC(C)C(OC(=O)c1ccc([N+](=O)[O-])cc1)C(=O)NC(C)(C)C (stereo not shown) [Compound 69] | >99% | – | <1% | – | – | – | –
CC(=O)OC(C(=O)NC(C)(C)C)C(C)C (stereo not shown) [Compound 70] | 94% | – | 5% | – | – | – | easily hydrolyzed
CCCCCC(=O)OC(C(=O)NC(C)(C)C)C(C)C (stereo not shown) [Compound 71] | 91% | – | <1% | – | – | – | easily hydrolyzed
CC(C)(C)NC(=O)C(OC(=O)c1ccccc1)c1ccc(Cl)cc1 (stereo not shown) [Compound 72] | >99% | – | <1% | – | – | – | rapidly cleaved
CC(C)C(OC(=O)Cc1ccccc1)C(=O)NC(C)(C)C (stereo not shown) [Compound 74, 1-(tert-butylamino)-3-methyl-1-oxobutan-2-yl 2-phenylacetate] | >99% | – | 17% | – | – | – | easily hydrolyzed
CC(C)C(OC(=O)CCCCCc1ccccc1)C(=O)NC(C)(C)C (stereo not shown) [Compound 75, 1-(tert-butylamino)-3-methyl-1-oxobutan-2-yl 6-phenylhexanoate] | >99% | – | <1% | – | – | – | easily hydrolyzed

Compound | Residual substrate percentage, buffer [1] | Residual substrate percentage, HLM ([2]; 30 min) | Residual substrate percentage, MLM [3] | Hydrolytic stability toward esterases (in words) [2] | Hydrolytic stability toward esterases (in words) ([2]; listed as methyl 2,6-dimethylbenzoate) | Hydrolytic stability in human liver microsomes (in words) ([2]; human liver microsomes, 30 min) | Hydrolysis of the ester group in mouse liver microsomes (in words) [3]
CC(C)C(OC(=O)COc1ccccc1)C(=O)NC(C)(C)C (stereo not shown) [Compound 76, 1-(tert-butylamino)-3-methyl-1-oxobutan-2-yl 2-phenoxyacetate] | >99% | – | <1% | – | – | – | completely unstable
CCCCCCCCCCCC(=O)OC(C(=O)NC(C)(C)C)C(C)C (stereo not shown) [Compound 77, 1-(tert-butylamino)-3-methyl-1-oxobutan-2-yl dodecanoate] | 77% | – | 7% | – | – | – | easily hydrolyzed
Cc1cccc(C)c1C(=O)OCC(=O)NC(C)(C)C [Compound 79] | 95% | – | 94% | – | – | – | –
Cc1ccccc1C(=O)OCC(=O)NC(C)(C)C [Compound 81] | >99% | – | <1% | – | – | – | the hydrolysis of the ester was complete
CC(C)(C)NC(=O)COC(=O)Cc1c(Cl)cccc1Cl [Compound 82] | >99% | – | 1% | – | – | – | easily hydrolyzed
CC(C)(C)NC(=O)COC(=O)C(=O)c1ccccc1 [Compound 83] | <1% | – | <1% | – | – | – | completely unstable
CC(C)(C)NC(=O)COC(=O)c1c(F)cccc1F [Compound 85] | >99% | – | <1% | – | – | – | completely hydrolyzed
CC(C)(C)NC(=O)COC(=O)c1ccccc1Br [Compound 86] | >99% | – | <1% | – | – | – | the hydrolysis of the ester was complete
CC(C)(C)NC(=O)COC(=O)c1ccccc1I [Compound 87] | >99% | – | <1% | – | – | – | the hydrolysis of the ester was complete
CC(C)(C)NC(=O)COC(=O)c1ccccc1-c1ccccc1 [Compound 88] | >99% | – | – | – | – | – | –
CC(C)(C)NC(=O)COC(=O)c1ccccc1Cl [Compound 90] | >99% | – | <1% | – | – | – | the hydrolysis of the ester was complete
CC(C)(C)NC(=O)COC(=O)C(C)(C)c1ccc(Br)cc1 [Compound 91] | >99% | – | 12% | – | – | – | easily hydrolyzed
CCC(C(=O)OCC(=O)NC(C)(C)C)c1ccccc1 (stereo not shown) [Compound 92] | >99% | – | <1% | – | – | – | easily hydrolyzed
Cc1cccc(C)c1C(=O)OC(C(=O)NC(C)(C)C)C(C)C (stereo not shown) [Compound 93] | >99% | – | >99% | – | – | – | –
Cc1cccc(C)c1C(=O)OCC(=O)NCc1ccccc1 [Compound 94] | >99% | – | >99% | – | – | – | –
CC(C)(C)NC(=O)COC(=O)c1c(Cl)cccc1Cl [Compound 95] | >99% | – | 78% | – | – | – | –
CC(C)(C)NC(=O)COC(=O)c1c(Cl)cccc1C(F)(F)F [Compound 96] | >99% | – | >99% | – | – | – | –
